The target of one test is T1, IDH2 R172W_P167R cis (Homo sapiens, UniProt P48735, P167R/R172W).
T1 construct: expressed in transfected cells; host or cells: U-87 MG
T1 sequence (P48735 40-452 P167R/R172W): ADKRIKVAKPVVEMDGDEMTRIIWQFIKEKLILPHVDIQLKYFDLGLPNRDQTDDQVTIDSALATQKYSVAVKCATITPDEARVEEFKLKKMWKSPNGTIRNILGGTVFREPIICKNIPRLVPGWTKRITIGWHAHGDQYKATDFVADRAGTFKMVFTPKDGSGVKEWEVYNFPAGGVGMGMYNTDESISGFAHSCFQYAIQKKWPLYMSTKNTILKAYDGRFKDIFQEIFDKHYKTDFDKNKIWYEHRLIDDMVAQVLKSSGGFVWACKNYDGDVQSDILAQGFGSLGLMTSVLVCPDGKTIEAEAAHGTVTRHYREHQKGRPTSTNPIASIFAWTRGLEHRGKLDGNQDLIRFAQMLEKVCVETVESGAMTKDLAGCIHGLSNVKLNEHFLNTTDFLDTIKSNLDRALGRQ
The experiment in a line: Inhibition of 2-HG production in IDH2 mutant U-87 MG cells. The test is classed as cell-based. Particulars: read-out: Relative IC50 (nM) Mean, inhibition of 2-HG production.

Another test has as its target T2, IDH2 R172K_Q316E cis (Homo sapiens, UniProt P48735, Q316E/R172K).
T2 construct: expressed in transfected cells; host or cells: U-87 MG
T2 sequence (P48735 40-452 R172K/Q316E): T1 sequence (P48735 40-452 P167R/R172W) with R128P, W133K, Q277E
The description is as above. To be noted: 16 hours incubation, 50K cells/well, 100 μl media/well, read-out: Relative IC50 (nM) Mean, inhibition of 2-HG production. The class given is cell-based.

The text below walks through data of patent US20240261294A1, “METHOD FOR TREATING IDH INHIBITOR-RESISTANT SUBJECTS” (Eli Lilly and Company, priority 2021, published 2024).

Molecules are shown by their SMILES. Numbering of substitutions follows the chain as printed. Like-named read-outs stand apart in the source and are kept apart here.

On to `C=CC(=O)N1CCN([C@@H](CC2CC2)c2ccc([C@H](C)Nc3ncc4c(n3)N(CC)C(=O)OC4)cc2)CC1` [Compound A, 7-[[(1S)-1-[4-[(1S)-2-cyclopropyl-1-(4-prop-2-enoylpiperazin-1-yl)ethyl]phenyl]ethyl]amino]-1-ethyl-4H-pyrimido[4,5-d][1,3]oxazin-2-one], for which the IC50 (commonly the concentration that inhibits the measured activity by half) was 1280 nM at IDH2 R172W_P167R cis (16 hours incubation, 50K cells/well, 100 μl media/well); 535 nM at IDH2 R172W_P167R cis (72 hours incubation, 12.5K cells/well); 76 nM on IDH2 R172K_Q316E cis.
